Source: patent US20090186767A1, “Use of surfactants for mitigating damage to plants from pests” (Cleareso, LLC, priority 2008, published 2009)
Entries after “also recorded” stand apart in the source; their conditions may differ.

How the values were obtained:
[1] = tested on: larvae of the root weevil, Diaprepes abbreviatus; assay: Immersion of root weevil larvae in test solutions (Example 1); format: in vivo; settings: for Judgement of toxicity to larvae: 0.1 to 5.0% treatments, test terminated at 24 hours; for Mortality of larvae with individual compounds and formulations: five larvae
Description: The criterion for toxicity with these larvae is the lack of nipping behavior and its consequent black residue from blood loss and the lack of spontaneous movement.
Experimental Design. Larvae and pupae were received from the Florida Dept. of Agriculture's rearing program in Gainesville, Fla. Larvae were shipped as 50-day larvae (larvae that will pupate in about 10 days). Both larvae and pupae were held at 27° C. in 12 hour cycles of light and dark in their containers as separate individuals until experimentation began.
In the testing, five larvae or pupae were removed from their rearing cups and placed in a 150 ml glass beaker. In testing the Soy Technologies Manufacturer's Base (SMTB), a 5% solution was mixed in either water or carbonated water by adding 10 ml of SMTB to a 250 ml beaker and then adding water or carbonated water to the 200 ml mark. The solutions were then immediately added to the beaker with the larvae or pupae to cover them. Controls with water or carbonated water alone were also included. There was a single tray of five larvae for each treatment at each time period and a five larvae control for each time period. Larvae were removed and placed on plastic weighing trays after 5, 10, 15, 20, 25, and 30 minutes. At the end of 30 minutes all organisms were assessed for mortality. Trays with larvae were left on the bench tip for 24 hours and then another mortality assessment was made.
Concentration Series. With the results from the time series above, larvae were held in different concentrations of STMB for 30 minutes. After 30 minutes, solutions were poured off and the trays wiped dry. Assessments were made at 24 or 48 hours with a few assessments at 72 hours dependent on effects. Treatments were: water or carbonated water as controls, and 0.1, 0.5, 1.0, 2.0, 3.0, 4.0 and 5.0% concentrations in either distilled water or carbonated water. Five larvae were used for each control and treatment. Pupae were not used in this assessment.

[2] = Solubility of test preparations in water (Example 1); format: physicochemical; settings: concentration stated in the value
[3] = tested on: tomato root galling by M. javanica; settings: in vivo; cited from earlier work
[4] = tested on: second stage juveniles of Meloidognye hapla; settings: cited from earlier work; for Toxicity to nematodes: in vivo; for Toxicity to second stage juveniles: 24 hours at a concentration of 50 ppm
[5] = concentration 0.1 percent, 24 hours
[6] = concentration 1.0 percent, 24 hours
[7] = concentration 3.0 percent, 24 hours
[8] = concentration 5.0 percent, 24 hours
[9] = concentration 0.1 percent, 48 hours
[10] = concentration 0.1 percent, 72 hours
[11] = concentration 1.0 percent, 48 hours
[12] = concentration 1.0 percent, 72 hours
[13] = concentration 3.0 percent, 48 hours
[14] = concentration 3.0 percent, 72 hours
[15] = concentration 5.0 percent, 48 hours
[16] = concentration 5.0 percent, 72 hours

Compound: COC(=O)CCC(=O)OC [106-65-0, butanedioic acid, dimethyl ester]
- Judgement of toxicity to larvae [1]: judged to be non-toxic
- Mortality of larvae with individual compounds and formulations [1, 5]: 2
- Mortality of larvae with individual compounds and formulations [1, 6]: 2
- Mortality of larvae with individual compounds and formulations [1, 7]: 1
- Mortality of larvae with individual compounds and formulations [1, 8]: 1
- Solubility of the preparation ([2]; listed as Dimethyl succinate): The 3% and 5% concentrations were not soluble; also recorded: the 1.0% appears to be just soluble; also recorded: The 0.1% was soluble

Compound: COC(=O)CCCCC(=O)OC [627-93-0, Dimethyl hexanedioate]
- Judgement of toxicity to larvae [1]: judged non-toxic
- Mortality of larvae with individual compounds and formulations [1, 5]: 2
- Mortality of larvae with individual compounds and formulations [1, 6]: 1
- Mortality of larvae with individual compounds and formulations [1, 7]: 2
- Mortality of larvae with individual compounds and formulations [1, 8]: 3
- Solubility of the preparation ([2]; listed as Dimethyladipate): Preparations of 1.0, 3.0, and 5.0% concentration were not completely soluble; also recorded: The 0.1% preparation was soluble

Compound: COC(=O)CCCC(=O)OC [1119-40-0, pentanedioic acid, dimethyl ester]
- Mortality of larvae with individual compounds and formulations [1, 9]: 3
- Mortality of larvae with individual compounds and formulations [1, 10]: 3
- Mortality of larvae with individual compounds and formulations [1, 11]: 1
- Mortality of larvae with individual compounds and formulations [1, 12]: 2
- Mortality of larvae with individual compounds and formulations [1, 13]: 0
- Mortality of larvae with individual compounds and formulations [1, 14]: 0
- Mortality of larvae with individual compounds and formulations [1, 15]: 1
- Mortality of larvae with individual compounds and formulations [1, 16]: 2

Compound: CCCCCCCCC(=O)OC [Methyl perlargonate]
- Concentration producing reduced galling of plants [3]: 0.8 microliters/liter

Compound: CCCCCCCC/C=C\CCCCCCCC(=O)O [Oleic acid]
- Toxicity to nematodes [4]: relatively nontoxic

Compound: CCCCCCCCCC(=O)O [decanoic acid]
- Toxicity to second stage juveniles [4]: killed all second stage juveniles

Compound: CCCCCCCC/C=C\CCCCCCCC(=O)[O-].[K+] [potassium oleate]
- Toxicity to nematodes [4]: relatively nontoxic

Compound: CCCCCCCCCCC(=O)O [undecanoic acid]
- Toxicity to second stage juveniles [4]: killed all second stage juveniles

Compound: Polyoxyethylene 10 tridecylether [24938-91-8]
- Mortality of larvae with individual compounds and formulations [1, 5]: 0
- Mortality of larvae with individual compounds and formulations [1, 9]: 0
- Mortality of larvae with individual compounds and formulations [1, 10]: 0
- Mortality of larvae with individual compounds and formulations [1, 6]: 2
- Mortality of larvae with individual compounds and formulations [1, 11]: 2
- Mortality of larvae with individual compounds and formulations [1, 12]: 2
- Mortality of larvae with individual compounds and formulations [1, 7]: 0
- Mortality of larvae with individual compounds and formulations [1, 13]: 0
- Mortality of larvae with individual compounds and formulations [1, 14]: 0
- Mortality of larvae with individual compounds and formulations [1, 8]: 0
- Mortality of larvae with individual compounds and formulations [1, 15]: 3
- Mortality of larvae with individual compounds and formulations [1, 16]: 3

Compound: glycol pelargonate
- Concentration producing reduced galling of plants [3]: 6.4 microliters/liter
